Activity calls are given as the source filed them.
Columns and labels:
Coagulation factor XII = target: T1, Coagulation factor XII (Homo sapiens, UniProt P00748); test: FXIIa inhibitor potency, concentration-response, biochemical (AID 716); type: functional
T1 sequence (P00748 whole entry): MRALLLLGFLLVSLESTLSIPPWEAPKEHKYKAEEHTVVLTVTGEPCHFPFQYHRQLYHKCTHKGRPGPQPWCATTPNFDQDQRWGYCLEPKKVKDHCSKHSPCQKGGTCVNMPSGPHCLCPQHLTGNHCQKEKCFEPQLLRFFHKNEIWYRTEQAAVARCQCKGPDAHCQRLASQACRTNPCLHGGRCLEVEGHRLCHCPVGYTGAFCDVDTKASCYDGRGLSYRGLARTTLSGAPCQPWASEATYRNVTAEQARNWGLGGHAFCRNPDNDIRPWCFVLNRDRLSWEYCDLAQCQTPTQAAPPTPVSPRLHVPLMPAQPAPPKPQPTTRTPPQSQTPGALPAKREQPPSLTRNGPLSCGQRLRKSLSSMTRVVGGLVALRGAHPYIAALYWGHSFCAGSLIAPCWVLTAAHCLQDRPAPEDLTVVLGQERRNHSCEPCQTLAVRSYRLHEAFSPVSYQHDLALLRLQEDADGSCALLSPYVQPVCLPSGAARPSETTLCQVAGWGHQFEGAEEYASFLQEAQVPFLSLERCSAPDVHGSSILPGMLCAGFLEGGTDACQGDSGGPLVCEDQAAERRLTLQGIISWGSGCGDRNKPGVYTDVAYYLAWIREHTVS

[1] = HEK293 cell cytotoxicity, dose response, cytotoxicity control, plate reader, cherry-picked samples (AID 743446); type: functional, cell-based
[2] = MC4R antagonists, dose response, counter-screen for LGR2 antagonist project, cell-based, plate reader, cherry pick (AID 743444); type: functional;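 further: transfected HEK 293 cells stimulated with alpha-MSH peptide; potency of inhibitors of the alpha-MSH evoked signal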
[3] = inhibitors of PGC1a acetylation in cells, dose response, cell-based, cherry-picked samples (AID 720514); type: functional;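 further: potency may reflect raised or lowered acetylation signal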
[4] = HepG2 cell cytotoxicity, dose response, cytotoxicity control, plate reader, cherry-pick, antagonist series (AID 743416); type: functional, cell-based
[5] = LGR2 antagonists, dose response, cell-based, HEK293, CRE-luciferase reporter, cherry pick, set 2 (AID 743343); type: functional;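 further: transfected cells were stimulated with diluted bursicon conditioned medium after compound addition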
Paired box protein Pax-8 = Paired box protein Pax-8 (Homo sapiens, UniProt Q06710); test: inhibitors of PAX8-driven TPO luciferase reporter, dose response, RMG-I cells, cherry-pick (AID 687027); type: functional, cell-based;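 further: luciferase reporter driven by Pax8 target thyroperoxidase promoter measured by SteadyGlo luminescence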
[6] = A549 cell cytotoxicity, dose response, cytotoxicity control, plate reader, cherry-pick, antagonist series (AID 743412); type: functional, cell-based
[7] = Fluorescence-based cell-based high throughput dose response assay for inhibitors of the interaction of nucleotide-binding oligomerization domain containing 2 (NOD2) and the receptor-interacting serine-threonine kinase 2 (RIPK2).; type: functional; conditions: Homo sapiens
[8] = target: Heat shock protein HSP 90-alpha (Homo sapiens, UniProt P07900); type: functional, organism-based
INS1 = test: beta cell apoptosis inhibitors, cytokine rescue, dose response, luminescence, retest (AID 449756); type: functional, cell-based; conditions: Rattus norvegicus;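 further: cell death triggered by IL-1 beta plus TNF-alpha plus IFN-gamma mixture; protective hits raise ATP signal compared with cytokine alone wells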
[9] = target: DNA dC->dU-editing enzyme APOBEC-3G (Homo sapiens, UniProt Q9HC16); type: functional;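 further: Dose-response counterscreen measuring inhibition of APOBEC3G DNA deaminase activity, run while confirming APOBEC3A inhibitors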
[10] = target: DNA dC->dU-editing enzyme APOBEC-3A (Homo sapiens, UniProt P31941); test: Dose Response confirmation of small molecule APOBEC3A DNA Deaminase Inhibitors via a fluorescence-based single-stranded DNA deaminase assay. [Related pubchem assays (depositor defined):AID493011, AID493024]; type: functional
[11] = target: T2, Lytic switch protein BZLF1 (Epstein-Barr virus (strain B95-8) (HHV-4) (Human herpesvirus 4), UniProt P03206); test: EBV ZTA inhibitors, dose response, counter-screen for EBNA-1 inhibitor project, biochemical, fluorescence polarization, Epstein-Barr virus, 1536-well (AID 2377); parameters: species or system human gammaherpesvirus 4;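 further: fluorescence polarization of Cy5-labelled ZRE DNA probe bound by purified Zta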
T2 sequence (P03206 whole entry): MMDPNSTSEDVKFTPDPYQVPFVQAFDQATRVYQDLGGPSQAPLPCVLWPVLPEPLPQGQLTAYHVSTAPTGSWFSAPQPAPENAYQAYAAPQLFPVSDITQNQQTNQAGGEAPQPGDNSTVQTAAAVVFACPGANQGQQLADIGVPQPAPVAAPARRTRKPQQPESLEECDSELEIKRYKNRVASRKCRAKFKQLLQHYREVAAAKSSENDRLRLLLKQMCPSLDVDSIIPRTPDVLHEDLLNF

[12] = target: T3, Epstein-Barr nuclear antigen 1 (Epstein-Barr virus (strain B95-8) (HHV-4) (Human herpesvirus 4), UniProt P03211); test: EBNA-1 inhibitors, dose response, biochemical, fluorescence polarization, 1536-well (AID 2381); parameters: species or system human gammaherpesvirus 4;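 further: fluorescence polarization of a Cy5 DNA probe bound by EBNA-1 protein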
T3 sequence (P03211 whole entry): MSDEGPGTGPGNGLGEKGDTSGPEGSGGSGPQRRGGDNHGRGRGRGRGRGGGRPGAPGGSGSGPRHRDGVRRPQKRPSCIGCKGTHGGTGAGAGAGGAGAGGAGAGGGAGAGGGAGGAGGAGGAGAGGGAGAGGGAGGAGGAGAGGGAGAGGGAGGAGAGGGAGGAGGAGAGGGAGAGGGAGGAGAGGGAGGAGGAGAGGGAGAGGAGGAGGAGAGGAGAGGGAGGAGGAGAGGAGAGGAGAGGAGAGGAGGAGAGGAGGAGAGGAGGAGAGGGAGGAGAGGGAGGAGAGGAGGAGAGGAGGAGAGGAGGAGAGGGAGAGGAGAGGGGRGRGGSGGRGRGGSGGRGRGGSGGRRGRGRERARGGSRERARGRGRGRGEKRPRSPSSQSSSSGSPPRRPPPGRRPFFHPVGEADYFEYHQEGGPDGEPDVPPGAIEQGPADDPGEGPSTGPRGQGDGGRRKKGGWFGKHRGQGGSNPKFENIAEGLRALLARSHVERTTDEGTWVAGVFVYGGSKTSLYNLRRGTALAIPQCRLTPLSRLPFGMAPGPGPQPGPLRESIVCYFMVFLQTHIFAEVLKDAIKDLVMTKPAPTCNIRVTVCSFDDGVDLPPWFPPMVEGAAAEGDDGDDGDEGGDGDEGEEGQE

[13] = target: Voltage-dependent T-type calcium channel subunit alpha-1H (Homo sapiens, UniProt O95180); type: functional;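 further: channel activity triggered by adding a high calcium stimulation buffer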
[14] = target: Photoreceptor-specific nuclear receptor (Homo sapiens, UniProt Q9Y5X4); test: NR2E3 inverse agonists, dose response, biochemical, TR-FRET (AID 463256); type: functional
[15] = target: Peroxisome proliferator-activated receptor gamma/Nuclear receptor corepressor 2 (Homo sapiens, UniProt P37231+Q9Y618); test: Counterscreen for NR2E3 inverse agonists: TR-FRET-based biochemical high throughput dose response assay to identify inverse agonists of the interaction between peroxisome proliferator-activated receptor gamma (PPARg) and nuclear receptor co-repressor 2 (NCOR2).; type: functional
Prothrombin = Prothrombin (Homo sapiens, UniProt P00734); test: Thrombin 1536 HTS Dose Response Confirmation. [Related pubchem assays: 1046 (Thrombin 1536 HTS; hits were confirmed in this assay)]; type: functional
[16] = target: T4, Carboxy-terminal domain RNA polymerase II polypeptide A small phosphatase 1 (Homo sapiens, UniProt Q9GZU7); test: inhibitors of CTDSP1, concentration-response testing, biochemical assay, absorbance-based, actives from ultra-high-throughput screening (AID 540297); type: functional
T4 sequence (Q9GZU7 whole entry): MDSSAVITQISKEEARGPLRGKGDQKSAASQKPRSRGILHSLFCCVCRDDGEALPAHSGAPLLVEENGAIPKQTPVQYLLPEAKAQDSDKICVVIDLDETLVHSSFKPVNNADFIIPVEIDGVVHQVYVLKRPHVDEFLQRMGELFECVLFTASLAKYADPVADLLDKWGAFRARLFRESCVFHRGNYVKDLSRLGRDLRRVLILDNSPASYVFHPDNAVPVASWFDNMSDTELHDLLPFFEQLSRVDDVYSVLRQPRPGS

[17] = target: T5, Oxysterols receptor LXR-beta (Homo sapiens, UniProt P55055); type: functional, cell-based;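 further: Cell-based luminescence dose-response assay of agonist activity at LXR, run as a confirmatory counterscreen to a daf-12 agonist screen; HEK293 cells with Gal4-LXR fusion and GAL4-driven luciferase reporter; agonist potency from rising luciferase signal of a Gal4-LXR reporter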
T5 sequence (P55055 whole entry): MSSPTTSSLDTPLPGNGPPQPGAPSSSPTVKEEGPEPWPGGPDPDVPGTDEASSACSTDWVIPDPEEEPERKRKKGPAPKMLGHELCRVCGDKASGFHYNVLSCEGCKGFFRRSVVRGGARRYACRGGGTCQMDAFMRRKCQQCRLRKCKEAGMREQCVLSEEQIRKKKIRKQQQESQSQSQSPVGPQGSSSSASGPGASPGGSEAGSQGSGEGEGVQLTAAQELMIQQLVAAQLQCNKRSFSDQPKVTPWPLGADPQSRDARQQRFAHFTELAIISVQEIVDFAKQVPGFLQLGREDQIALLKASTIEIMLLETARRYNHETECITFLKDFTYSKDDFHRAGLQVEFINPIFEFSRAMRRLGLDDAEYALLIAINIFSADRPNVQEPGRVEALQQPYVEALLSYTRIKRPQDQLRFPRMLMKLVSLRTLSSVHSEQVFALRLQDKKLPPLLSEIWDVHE

[18] = target: FAD-linked sulfhydryl oxidase ALR (Homo sapiens, UniProt P55789); test: inhibitors of human ALR sulfhydryl oxidase, dose response, biochemical, H2O2 detection, luminescence, cherry-pick (AID 493248)
[19] = Luminescence-based counterscreen assay for KLF5 inhibitors: dose response cell-based high throughput screening assay to identify cytotoxic compounds using the IEC-6 intestinal epithelial cell line. [Related pubchem assays: 1700 (Primary screen.), 1834 (Confirmation screen.), 1858 (Summary AID.), 1905 (Counterscreen.)]; type: functional
HEK293 = test: inhibitors of LMP1-driven NF-kB reporter, dose response, cell-based, HEK293, luciferase, cherry-pick (AID 588343); type: functional; conditions: Homo sapiens
[20] = P. falciparum Dd2 growth inhibitors, dose response, SYBR Green, cherry-picked samples (AID 1159567); type: functional, cell-based
[21] = HepG2 cell cytotoxicity, dose response, cytotoxicity control, cherry-picked samples (AID 1159577); type: functional, cell-based

Chain of Voltage-dependent T-type calcium channel subunit alpha-1H (O95180 whole entry): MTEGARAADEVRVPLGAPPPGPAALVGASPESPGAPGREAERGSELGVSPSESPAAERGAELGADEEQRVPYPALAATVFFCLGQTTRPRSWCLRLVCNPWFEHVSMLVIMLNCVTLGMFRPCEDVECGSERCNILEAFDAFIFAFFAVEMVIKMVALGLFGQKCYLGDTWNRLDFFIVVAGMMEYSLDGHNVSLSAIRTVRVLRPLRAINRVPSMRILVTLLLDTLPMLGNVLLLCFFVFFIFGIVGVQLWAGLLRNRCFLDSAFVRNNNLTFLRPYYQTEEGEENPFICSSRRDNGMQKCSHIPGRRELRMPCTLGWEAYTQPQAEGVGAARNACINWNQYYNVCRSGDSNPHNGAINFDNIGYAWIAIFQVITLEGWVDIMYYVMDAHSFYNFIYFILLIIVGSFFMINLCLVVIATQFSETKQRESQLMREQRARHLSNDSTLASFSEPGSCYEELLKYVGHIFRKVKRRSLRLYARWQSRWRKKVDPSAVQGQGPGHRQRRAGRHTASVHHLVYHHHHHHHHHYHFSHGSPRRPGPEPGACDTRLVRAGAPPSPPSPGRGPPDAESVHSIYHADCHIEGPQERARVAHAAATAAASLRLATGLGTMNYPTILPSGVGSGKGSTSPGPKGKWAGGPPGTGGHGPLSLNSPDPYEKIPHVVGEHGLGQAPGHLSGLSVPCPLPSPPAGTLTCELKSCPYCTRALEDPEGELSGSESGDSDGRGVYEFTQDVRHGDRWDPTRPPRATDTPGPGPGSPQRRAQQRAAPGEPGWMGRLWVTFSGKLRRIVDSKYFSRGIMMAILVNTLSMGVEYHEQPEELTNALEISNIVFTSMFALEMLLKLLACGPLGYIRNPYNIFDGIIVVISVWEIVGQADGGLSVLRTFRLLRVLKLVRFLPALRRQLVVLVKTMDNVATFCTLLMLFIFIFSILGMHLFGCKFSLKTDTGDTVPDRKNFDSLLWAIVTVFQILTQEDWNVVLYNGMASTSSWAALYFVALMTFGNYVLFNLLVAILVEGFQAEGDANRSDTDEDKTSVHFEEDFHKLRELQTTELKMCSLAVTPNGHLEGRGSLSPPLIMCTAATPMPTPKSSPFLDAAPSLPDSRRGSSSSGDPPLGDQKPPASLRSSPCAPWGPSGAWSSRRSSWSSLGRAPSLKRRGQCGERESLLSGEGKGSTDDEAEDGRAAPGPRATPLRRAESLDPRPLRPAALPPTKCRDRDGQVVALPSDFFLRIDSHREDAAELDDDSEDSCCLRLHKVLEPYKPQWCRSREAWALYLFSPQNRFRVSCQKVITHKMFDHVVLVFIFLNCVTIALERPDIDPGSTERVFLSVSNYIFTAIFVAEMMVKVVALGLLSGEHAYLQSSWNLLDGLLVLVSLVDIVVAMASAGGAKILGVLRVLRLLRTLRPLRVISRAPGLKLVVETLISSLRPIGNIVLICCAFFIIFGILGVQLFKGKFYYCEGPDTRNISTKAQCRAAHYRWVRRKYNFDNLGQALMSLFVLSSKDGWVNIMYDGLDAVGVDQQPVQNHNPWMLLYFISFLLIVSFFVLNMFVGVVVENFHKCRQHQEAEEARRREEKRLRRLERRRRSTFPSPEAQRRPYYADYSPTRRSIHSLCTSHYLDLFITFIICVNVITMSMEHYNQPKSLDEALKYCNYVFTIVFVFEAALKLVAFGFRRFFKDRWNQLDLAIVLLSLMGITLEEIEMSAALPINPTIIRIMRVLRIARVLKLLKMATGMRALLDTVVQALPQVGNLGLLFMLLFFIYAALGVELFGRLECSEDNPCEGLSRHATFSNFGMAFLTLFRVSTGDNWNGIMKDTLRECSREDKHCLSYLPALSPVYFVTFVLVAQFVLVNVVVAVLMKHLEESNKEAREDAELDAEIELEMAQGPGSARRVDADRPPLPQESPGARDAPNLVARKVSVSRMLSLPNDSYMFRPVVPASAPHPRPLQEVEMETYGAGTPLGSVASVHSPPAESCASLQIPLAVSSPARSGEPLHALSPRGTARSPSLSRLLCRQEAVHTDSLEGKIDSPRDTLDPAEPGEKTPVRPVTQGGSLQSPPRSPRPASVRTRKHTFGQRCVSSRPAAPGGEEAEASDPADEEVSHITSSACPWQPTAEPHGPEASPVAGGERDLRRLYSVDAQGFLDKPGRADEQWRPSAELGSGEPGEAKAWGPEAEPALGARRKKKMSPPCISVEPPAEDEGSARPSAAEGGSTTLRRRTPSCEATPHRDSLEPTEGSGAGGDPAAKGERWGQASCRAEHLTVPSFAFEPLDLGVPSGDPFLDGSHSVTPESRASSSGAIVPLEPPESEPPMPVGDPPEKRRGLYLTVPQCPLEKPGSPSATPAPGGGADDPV
Chain of DNA dC->dU-editing enzyme APOBEC-3G (Q9HC16 whole entry): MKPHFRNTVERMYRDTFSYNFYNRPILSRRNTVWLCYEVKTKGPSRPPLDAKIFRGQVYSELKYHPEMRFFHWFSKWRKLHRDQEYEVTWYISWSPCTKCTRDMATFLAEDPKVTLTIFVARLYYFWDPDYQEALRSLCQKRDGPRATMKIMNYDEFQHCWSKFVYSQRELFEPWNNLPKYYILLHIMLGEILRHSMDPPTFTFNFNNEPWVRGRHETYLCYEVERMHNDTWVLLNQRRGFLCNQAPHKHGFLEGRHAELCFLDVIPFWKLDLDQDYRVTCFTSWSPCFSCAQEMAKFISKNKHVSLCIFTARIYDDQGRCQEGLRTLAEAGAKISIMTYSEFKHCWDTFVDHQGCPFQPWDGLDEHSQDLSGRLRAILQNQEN
Chain of DNA dC->dU-editing enzyme APOBEC-3A (P31941 whole entry): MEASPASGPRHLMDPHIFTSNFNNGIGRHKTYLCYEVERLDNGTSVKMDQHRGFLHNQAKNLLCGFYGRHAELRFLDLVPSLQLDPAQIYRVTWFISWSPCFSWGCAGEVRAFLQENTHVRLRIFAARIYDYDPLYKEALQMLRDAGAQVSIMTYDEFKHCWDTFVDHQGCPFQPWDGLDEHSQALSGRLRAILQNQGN
Chain of Photoreceptor-specific nuclear receptor (Q9Y5X4 whole entry): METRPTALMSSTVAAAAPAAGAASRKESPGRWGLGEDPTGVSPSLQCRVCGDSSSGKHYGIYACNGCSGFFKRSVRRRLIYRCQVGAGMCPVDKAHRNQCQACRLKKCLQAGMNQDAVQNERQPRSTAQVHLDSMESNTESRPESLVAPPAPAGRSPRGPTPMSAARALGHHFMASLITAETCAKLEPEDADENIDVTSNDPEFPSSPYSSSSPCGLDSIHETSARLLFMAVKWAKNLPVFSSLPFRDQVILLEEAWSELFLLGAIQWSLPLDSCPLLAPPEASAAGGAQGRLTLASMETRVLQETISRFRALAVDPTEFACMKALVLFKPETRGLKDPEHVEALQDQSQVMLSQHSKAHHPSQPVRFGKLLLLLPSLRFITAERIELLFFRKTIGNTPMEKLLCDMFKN
Chain of FAD-linked sulfhydryl oxidase ALR (P55789 whole entry): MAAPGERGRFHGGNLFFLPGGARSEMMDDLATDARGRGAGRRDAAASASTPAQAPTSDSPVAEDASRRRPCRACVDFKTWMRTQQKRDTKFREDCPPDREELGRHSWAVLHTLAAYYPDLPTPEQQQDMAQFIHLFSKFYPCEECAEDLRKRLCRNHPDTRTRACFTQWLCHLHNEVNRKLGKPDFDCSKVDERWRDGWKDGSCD
Chain of Paired box protein Pax-8 (Q06710 whole entry): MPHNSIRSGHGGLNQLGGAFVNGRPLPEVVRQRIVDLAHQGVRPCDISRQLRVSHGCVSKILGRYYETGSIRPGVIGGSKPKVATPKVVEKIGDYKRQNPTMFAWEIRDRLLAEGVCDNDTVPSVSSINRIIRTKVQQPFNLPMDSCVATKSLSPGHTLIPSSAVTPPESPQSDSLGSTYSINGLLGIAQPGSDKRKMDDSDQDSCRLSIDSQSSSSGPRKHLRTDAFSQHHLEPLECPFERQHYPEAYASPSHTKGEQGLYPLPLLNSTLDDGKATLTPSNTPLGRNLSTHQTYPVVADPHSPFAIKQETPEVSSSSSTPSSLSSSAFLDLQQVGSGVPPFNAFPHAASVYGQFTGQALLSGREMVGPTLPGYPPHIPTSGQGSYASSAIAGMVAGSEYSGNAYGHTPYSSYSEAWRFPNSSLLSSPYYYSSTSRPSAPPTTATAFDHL

With `COc1ccccc1/N=C/c1nc(-c2ccccc2)oc1OC(C)=O` the IC50 (Coagulation factor XII) was 48.8 µM (active).

For `C=CCNc1ncnc2c1[nH]c1ccc(C)cc12`, the IC50 (Coagulation factor XII) was > 50 µM (inactive).

For `Cn1nnnc1Sc1ncnc2scc(-c3cccc(S(C)(=O)=O)c3)c12`, the AC50 [1] was 25.8 µM (active), the AC50 [2] was 2.82 µM (active) and the AC50 [3] was 35.3 µM (active). The AC50 [4] was 17.6 µM (active), the AC50 [5] was 4.13 µM (active) and the AC50 (Paired box protein Pax-8) was 2.03 µM (active). For the same compound, the AC50 [6] was 14.9 µM (active).

In the case of `Cc1ccccc1Oc1cc(-n2ncc(Cl)c(Cl)c2=O)ncn1`, the AC50 [1] is reported as 4.45 µM (active), the AC50 [2] is reported as 9.42 µM (active) and the AC50 [3] is reported as 4.25 µM (active). For the same compound, the AC50 [4] was 1.65 µM (active), the AC50 [5] was 7.89 µM (active) and the IC50 [7] was 0.882 µM (active). For the same compound, the AC50 [8] was 3.94 µM (active), the AC50 (INS1) was 3.02 µM (active) and the AC50 [6] was 4.53 µM (active).

In the case of `Cc1cc(=O)oc2c1c(C)nn2-c1nn[nH]n1`, the IC50 [9] is reported as 4.36 µM (active) and the IC50 [10] is reported as 1.76 µM (active).

With `CC1=CC(=C(C#N)C#N)C=C(C)N1CCN1CCN(C(=O)Nc2ccc(Cl)c(Cl)c2)CC1` the IC50 [11] was > 111 µM (not active) and the IC50 [12] was 16.3 µM (not active).

For `O=C(CSc1nnnn1C1CCCCC1)N1c2ccccc2Sc2ccccc21`, the EC50 [13] was 7.42 µM (active).

For `O=C(Nc1ccc(-c2nc3ncccc3o2)cc1)c1ccc(Br)o1`, the IC50 [14] was 3.5 µM (active) and the IC50 [15] was 3.7 µM (active).

With `Cc1ccsc1C(=O)Nc1nccs1` the IC50 [14] was > 39.9 µM (not active) and the IC50 [15] was 27.3 µM (not active).

With `Cc1sc2ncnc(SCC(=O)NNC(=O)COc3cccc4ccccc34)c2c1C` the IC50 [11] was > 111 µM (not active) and the IC50 [12] was 2.02 µM (active).

For `Cn1cc(C(=O)c2ccc(Cl)cc2Cl)cc1C(=O)NN=C(N)COc1ccc(F)cc1`, the IC50 (Prothrombin) was 2.13 µM (active) and the EC50 [13] was 2.48 µM (active).

For `CCC1=C/C(=C\c2ccc3c(c2)OCO3)C(=O)S1`, the IC50 (Coagulation factor XII) was > 50 µM (inactive).

With `CCc1ccc(-c2nc(CN3CCC(C(=O)NCc4ccc(F)cc4)CC3)c(C)o2)cc1` the EC50 [13] was 4.46 µM (active).

For `O=C(O)c1cc(-c2ccc3c(c2)OCO3)nc2ccccc12`, the AC50 [3] was 31 µM (active).

For `CCCc1nc(-c2cc3cc(C)ccc3[nH]c2=O)no1`, the IC50 [9] was 2.41 µM (active), the IC50 [10] was 3.04 µM (active) and the IC50 [16] was 12.8 µM (active).

For `CC12CCC(C[N+](C)(C)C1)C2(C)C` (centres undefined), the IC50 [9] was 4.71 µM (active), the IC50 [10] was 2.69 µM (active) and the IC50 [16] was 5.62 µM (active).

With `COc1ccc(-c2cn3c4c(sc3n2)CCCC4)cc1` the EC50 [17] was > 67.5 µM (inactive), the AC50 [18] was 0.325 µM (active) and the EC50 (cells) was > 67.5 µM (inactive).

With `CCOc1cc(Br)cc(/C=N/NC(=O)c2cccnc2)c1O` the IC50 [19] was 16.8 µM (not active) and the AC50 (HEK293) was 21.5 µM (active).

For `O=[N+]([O-])c1cccc(/C=N/Nc2nc(NCc3ccccc3)nc(N3CCOCC3)n2)c1`, the IC50 [11] was > 111 µM (not active) and the IC50 [12] was 3.45 µM (active).

In the case of `COc1ccccc1NC(=O)N1CCCCN2[C@@H](CO)[C@H](c3ccc(C#Cc4ccccc4)cc3)[C@@H]2C1`, the AC50 [20] is reported as < 0.3 µM (active) and the AC50 [21] is reported as 9.96 µM (active).

Reference: ChEMBL document CHEMBL1201862, “PubChem BioAssay data set” (2004)
